Test results from patent publication US11852971B2, “Compound, photosensitive resin composition including the same, photosensitive resin layer, color filter and display device” (SAMSUNG SDI CO., LTD., priority 2019, dated 2023).

Legend:
[1] = Measurement of the shortest wavelength of full width at half maximum (FWHM) with respect to maximum absorption wavelength (absorption spectrum); type: physicochemical; conditions: 0.005 wt % in PGMEA; UV-1800
Source text: The shortest wavelength of the full width at half maximum (FWHM) with respect to the maximum absorption wavelengths denotes a wavelength having the smallest value (a) among the energy widths (Δλ) of the maximum absorption wavelength (b) in the absorption spectrum of a particular phthalocyanine compound. (Refer to the FIGURE)
Evaluation 1: Measurement of the Shortest Wavelength of Full Width at Half Maximum (FWHM) with respect to Maximum Absorption Wavelength
The compounds according to Synthesis Example 1 to Synthesis Example 21 and Comparative Synthesis Example 1 to Comparative Synthesis Example 6 were prepared at a concentration of 0.005 wt % using a diluting solvent (PGMEA). Absorption spectra were obtained for each of the phthalocyanine compounds according to Synthesis Example 1 to […] and Comparative Synthesis Example 1 to Comparative Synthesis Example 6, and the results are shown in Table 1 (UV-1800, SHTMADZU).

[2] = Solubility measurement in dilution solvent (PGMEA); type: physicochemical; conditions: PGMEA added to 0.5 g compound, stirred 100 rpm, one hour, 25° C.
Protocol: Evaluation 2: Solubility Measurement Solubility of the compounds according to Synthesis Examples 11 to 21 and Comparative Synthesis Examples 1 to 6 were measured by adding a dilution solvent (PGMEA) to 0.5 g of each compound and respectively stirring the mixtures (MIXROTAR VMR-5, Iuchi Seiei Dou Co.) at 100 rpm for one hour at 25° C., and the results are shown in Table 2. Solubility Evaluation Criteria Greater than or equal to 10 wt % of a compound (a solute) based on a total amount of a diluting solvent was dissolved: ∘ Less than 10 wt % of a compound (a solute) based on a total amount of a diluting solvent was dissolved: X

Row | Compound | The shortest wavelength (nm) of full width at half maximum (FWHM) with respect to maximum absorption wavelength [1] [nm] | Solubility [2]
1 | COc1ccc(Oc2c(Cl)c(Cl)c3c(c2Cl)C2=NC/3=N\c3c4c(Cl)c(Oc5ccc(OC)cc5OC)c(Cl)c(Cl)c4c4[n]3[Zn][n]3/c(c5c(Cl)c(Cl)c(Oc6ccc(OC)cc6OC)c(Cl)c5/c3=N/C3=NC(=N\4)/c4c(Cl)c(Oc5ccc(OC)cc5OC)c(Cl)c(Cl)c43)=N\2)c(OC)c1 [Comparative Synthesis Example 3, reference compound] | 623 | X (Less than 10 wt % of a compound (a solute) based on a total amount of a diluting solvent was dissolved)
2 | CC(C)(C)c1ccccc1Oc1c(Cl)c(Cl)c2c(c1Cl)/C1=N/c3c4c(Cl)c(Oc5ccccc5C(C)(C)C)c(Cl)c(Cl)c4c4[n]3[Zn][n]3/c(c5ccccc5/c3=N/C2=N1)=N\C1=NC(=N\4)/c2c(Cl)c(Cl)c(Cl)c(Cl)c21 [Synthesis Example 3] | 618 | ○
3 | CC(C)CCOc1c(Cl)c(Cl)c2c(c1Cl)/C1=N/c3c4c(Cl)c(Cl)c(Cl)c(Cl)c4c4[n]3[Zn][n]3/c(c5ccccc5/c3=N/C2=N1)=N\C1=NC(=N\4)/c2c(Cl)c(Cl)c(Cl)c(Cl)c21 [Synthesis Example 16] | 618 | ○
4 | CC(C)CCOc1c(Cl)c(Cl)c2c(c1Cl)/C1=N/c3c4c(Cl)c(OCCC(C)C)c(Cl)c(Cl)c4c4[n]3[Zn][n]3/c(c5ccccc5/c3=N/C2=N1)=N\C1=NC(=N\4)/c2c(Cl)c(Cl)c(Cl)c(Cl)c21 [Synthesis Example 15] | 617 | ○
5 | CC(C)c1ccccc1Oc1c(Cl)c(Cl)c2c(c1Cl)/C1=N/c3c4c(Cl)c(Cl)c(Cl)c(Cl)c4c4[n]3[Zn][n]3/c(c5ccccc5/c3=N/C2=N1)=N\C1=NC(=N\4)/c2c(Cl)c(Cl)c(Cl)c(Cl)c21 [Synthesis Example 2] | 617 | ○
